BindingDB's records for patent US12065430 (Taiho Pharmaceutical, 2024)

target: T1, Son of sevenless homolog 1 [564-1049]/GTPase KRas [G12C] (UniProt P01116+Q07889, G12C); assay: Evaluation of Inhibitory Activity of Compounds on KRAS G12C Nucleotide (GDP-GTP) Exchange Reaction
T1 construct: 564-1049
Method: The inhibitory activity of compounds on exchange reaction of GDP into GppNHp in Bodipy (trademark) FL-bound KRAS G12C was examined by fluorescence measurement using human recombinant KRAS G12C and SOS1 proteins.For the preparation of KRAS G12C to which Bodipy FL GDP was bound, first, […] KRAS G12C (amino acid region: 1-169) and 1 mM Bodipy FL GDP (Invitrogen, G22360) were incubated for 1 hour in a buffer (20 mM Tris-HCl (pH 7.5), 50 mM NaCl, 1 mM DTT) in ice in the presence of 2.5 mM EDTA. Thereafter, MgCl2 with a final concentration of 10 mM was added, and the mixture was incubated at room temperature for 30 minutes. The protein was allowed to pass through a NAP-5 column to remove free nucleotides and was used for compound evaluation.For the measurement of the inhibitory activity of compounds on nucleotide exchange reaction, first, the compound of the present invention was diluted stepwise with dimethyl sulfoxide (DMSO). Subsequently, a solution of the gradually diluted compound of the present invention in DMSO (the final concentration of DMSO: 5%) and KRAS G12C (25 nM) bound to Bodipy FL GDP were added to a reaction buffer (20 mM Tris-HCl (pH 7.5), 100 mM NaCl, 1 mM MgCl2, 2 mM DTT, 0.1% Tween20), followed by preincubation at 25° C. for 4 hours. Thereafter, Son of Sevenless Homolog 1 (SOS1, amino acid region: 564-1049) and GppNHp (GMPPNP, Jena Bioscience GmbH, NU-401-50) were added such that their final concentration was 100 nM and 1 μM respectively, followed by reaction for 30 minutes. The change in fluorescence intensity of Bodipy FL (excitation wavelength: 485 nm, fluorescence wavelength: 520 nm) immediately after the start of reaction and after 30 minutes from the start of reaction was standardized. The signal value for only DMSO was determined to be 0% inhibition, and the signal value for no addition of GppNHp was determined to be 100% inhibition. The compound concentration at which 50% inhibition is achieved was determined to be IC50 (nM), and was calculated.

T1 sequence (P01116 whole entry G12C): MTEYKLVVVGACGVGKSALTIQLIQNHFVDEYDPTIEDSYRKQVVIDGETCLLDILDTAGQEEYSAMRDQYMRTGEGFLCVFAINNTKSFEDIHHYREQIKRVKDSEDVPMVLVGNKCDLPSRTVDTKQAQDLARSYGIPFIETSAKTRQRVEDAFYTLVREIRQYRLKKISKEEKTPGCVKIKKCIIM
T1 sequence (Q07889 564-1049): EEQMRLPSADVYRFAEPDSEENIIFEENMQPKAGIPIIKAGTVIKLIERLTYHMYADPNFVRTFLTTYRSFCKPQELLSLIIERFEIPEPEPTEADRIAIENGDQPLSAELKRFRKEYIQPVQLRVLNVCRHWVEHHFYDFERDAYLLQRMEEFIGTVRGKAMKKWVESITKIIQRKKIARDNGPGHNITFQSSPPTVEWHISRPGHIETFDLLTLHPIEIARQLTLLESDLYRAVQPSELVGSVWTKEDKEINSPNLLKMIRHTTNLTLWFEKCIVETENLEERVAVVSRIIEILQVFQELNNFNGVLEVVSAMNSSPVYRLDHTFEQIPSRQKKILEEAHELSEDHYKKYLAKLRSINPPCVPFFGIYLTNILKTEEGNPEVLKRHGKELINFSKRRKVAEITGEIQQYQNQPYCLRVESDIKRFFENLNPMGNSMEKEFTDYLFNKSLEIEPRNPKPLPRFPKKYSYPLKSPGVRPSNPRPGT

SMILES | IC50 [nM]
C=CC(=O)N1CC(NC(=O)c2c(F)nc(CNc3n[nH]c4cc(Cl)c(C(C)(C)C)cc34)n2C(C)C)C1 [US12065430, Example 34] | 13
C=CC(=O)N1CC[C@@H](N(C)C(=O)c2cnc(CNc3n[nH]c4cc(Cl)c(C(C)(C)C)cc34)n2C)C1 [US12065430, Example 77] | 142
C=CC(=O)N1CC(NC(=O)c2c(Cl)nc(CNc3n[nH]c4cc(Cl)c(C(C)(C)C)cc34)n2CC(C)C)C1 [US12065430, Example 89] | 7
C=CC(=O)N1CC(N(C)C(=O)c2c(C)nc(CNc3n[nH]c4cc(Cl)c(C(C)(C)C)cc34)n2C)C1 [US12065430, Example 49] | 208
C=CC(=O)N1CC(NC(=O)c2c(Br)nc(CNc3n[nH]c4cc(Cl)c(C(C)(C)C)cc34)n2C)C1 [US12065430, Example 27] | 8
C=CC(=O)N1CC(NC(=O)c2c(Cl)nc(CNc3n[nH]c4cc(Cl)c(C(C)(C)C)cc34)n2[C@@H]2CCN(C3CC3)C2)C1 [US12065430, Example 120] | 6
C=CC(=O)N1CC(NC(=O)c2c(C(F)F)nc(CNc3n[nH]c4cc(Cl)c(C(C)(C)C)cc34)n2C2CCN(C)C2)C1 (stereo not given) [US12065430, Example 91] | 7
C=CC(=O)N1CC(NC(=O)c2c(Cl)nc(CNc3n[nH]c4cc(Cl)c(C(C)(C)C)cc34)n2CC(F)F)C1 [US12065430, Example 100] | 14
C=CC(=O)N1CC(NC(=O)c2c(C)nc(CNc3n[nH]c4cc(Cl)c(C(C)(C)C)cc34)n2CCCC)C1 [US12065430, Example 18] | 12
CC#CC(=O)N1CC(NC(=O)c2c(C)nc(CNc3n[nH]c4cc(Cl)c(C(C)(C)C)cc34)n2C(C)C)C1 [US12065430, Example 82] | 209
C=CC(=O)N1CC(NC(=O)c2cnc(CNc3n[nH]c4cc(Cl)c(C)cc34)n2C)C1 [US12065430, Example 37] | 5480
C=CC(=O)N1CC(NC(=O)c2c(Cl)nc(CNc3n[nH]c4cc(Cl)c(C(C)(C)C)cc34)n2[C@@H]2CCN(C3COC3)C2)C1 [US12065430, Example 121] | 5
C=CC(=O)N1CC(NC(=O)c2cc(CNc3n[nH]c4cc(Cl)c(C(C)(C)C)cc34)nn2C)C1 [US12065430, Example 9] | 3140
C=CC(=O)N1CC(NC(=O)c2cnc(CNc3n[nH]c4cc(Cl)c(C(C)(C)C)nc34)n2C)C1 [US12065430, Example 40] | 27
C=CC(=O)N1CCC(NC(=O)c2c(C)nc(CNc3n[nH]c4cc(Cl)c(C(C)(C)C)cc34)n2C)CC1 [US12065430, Example 47] | 1730
C=CC(=O)N1CC(NC(=O)c2c(C)nc(CNc3n[nH]c4cc(Cl)c(C(C)(C)C)cc34)n2C(C)CC)C1 (stereo not given) [US12065430, Example 20] | 31
C=CC(=O)N1C[C@@H](COC)[C@@H](NC(=O)c2c(C)nc(CNc3n[nH]c4cc(Cl)c(C(C)(C)C)cc34)n2C)C1 [US12065430, Example 67] | 24
C=CC(=O)N1CC(NC(=O)c2c(Cl)nc(CNc3n[nH]c4cc(Cl)c(C(C)(C)C)cc34)n2C2CCCCC2)C1 [US12065430, Example 109] | 23
C=CC(=O)N1CC(NC(=O)c2c(Cl)nc(CNc3n[nH]c4cc(Cl)c(C(C)(C)C)cc34)n2CCOC)C1 [US12065430, Example 90] | 6
C=CC(=O)N1CC(NC(=O)c2c(CC)nc(CNc3n[nH]c4cc(Cl)c(C(C)(C)C)cc34)n2C)C1 [US12065430, Example 31] | 642
